ChEMBL document CHEMBL1153168, “3D QSAR studies on 3,4-dihydroquinazolines as T-type calcium channel blocker by comparative molecular similarity indices analysis (CoMSIA)” (Bioorg Med Chem Lett, 2010)
pIC50: −log10 of the molar value.

The compounds below were run against Voltage-dependent T-type calcium channel subunit alpha-1G (Homo sapiens, UniProt O43497) (assay: Inhibition of human T-type calcium channel alpha1G in HEK293 cells).
Format: cell-based

Voltage-dependent T-type calcium channel subunit alpha-1G, sequence (O43497 whole entry): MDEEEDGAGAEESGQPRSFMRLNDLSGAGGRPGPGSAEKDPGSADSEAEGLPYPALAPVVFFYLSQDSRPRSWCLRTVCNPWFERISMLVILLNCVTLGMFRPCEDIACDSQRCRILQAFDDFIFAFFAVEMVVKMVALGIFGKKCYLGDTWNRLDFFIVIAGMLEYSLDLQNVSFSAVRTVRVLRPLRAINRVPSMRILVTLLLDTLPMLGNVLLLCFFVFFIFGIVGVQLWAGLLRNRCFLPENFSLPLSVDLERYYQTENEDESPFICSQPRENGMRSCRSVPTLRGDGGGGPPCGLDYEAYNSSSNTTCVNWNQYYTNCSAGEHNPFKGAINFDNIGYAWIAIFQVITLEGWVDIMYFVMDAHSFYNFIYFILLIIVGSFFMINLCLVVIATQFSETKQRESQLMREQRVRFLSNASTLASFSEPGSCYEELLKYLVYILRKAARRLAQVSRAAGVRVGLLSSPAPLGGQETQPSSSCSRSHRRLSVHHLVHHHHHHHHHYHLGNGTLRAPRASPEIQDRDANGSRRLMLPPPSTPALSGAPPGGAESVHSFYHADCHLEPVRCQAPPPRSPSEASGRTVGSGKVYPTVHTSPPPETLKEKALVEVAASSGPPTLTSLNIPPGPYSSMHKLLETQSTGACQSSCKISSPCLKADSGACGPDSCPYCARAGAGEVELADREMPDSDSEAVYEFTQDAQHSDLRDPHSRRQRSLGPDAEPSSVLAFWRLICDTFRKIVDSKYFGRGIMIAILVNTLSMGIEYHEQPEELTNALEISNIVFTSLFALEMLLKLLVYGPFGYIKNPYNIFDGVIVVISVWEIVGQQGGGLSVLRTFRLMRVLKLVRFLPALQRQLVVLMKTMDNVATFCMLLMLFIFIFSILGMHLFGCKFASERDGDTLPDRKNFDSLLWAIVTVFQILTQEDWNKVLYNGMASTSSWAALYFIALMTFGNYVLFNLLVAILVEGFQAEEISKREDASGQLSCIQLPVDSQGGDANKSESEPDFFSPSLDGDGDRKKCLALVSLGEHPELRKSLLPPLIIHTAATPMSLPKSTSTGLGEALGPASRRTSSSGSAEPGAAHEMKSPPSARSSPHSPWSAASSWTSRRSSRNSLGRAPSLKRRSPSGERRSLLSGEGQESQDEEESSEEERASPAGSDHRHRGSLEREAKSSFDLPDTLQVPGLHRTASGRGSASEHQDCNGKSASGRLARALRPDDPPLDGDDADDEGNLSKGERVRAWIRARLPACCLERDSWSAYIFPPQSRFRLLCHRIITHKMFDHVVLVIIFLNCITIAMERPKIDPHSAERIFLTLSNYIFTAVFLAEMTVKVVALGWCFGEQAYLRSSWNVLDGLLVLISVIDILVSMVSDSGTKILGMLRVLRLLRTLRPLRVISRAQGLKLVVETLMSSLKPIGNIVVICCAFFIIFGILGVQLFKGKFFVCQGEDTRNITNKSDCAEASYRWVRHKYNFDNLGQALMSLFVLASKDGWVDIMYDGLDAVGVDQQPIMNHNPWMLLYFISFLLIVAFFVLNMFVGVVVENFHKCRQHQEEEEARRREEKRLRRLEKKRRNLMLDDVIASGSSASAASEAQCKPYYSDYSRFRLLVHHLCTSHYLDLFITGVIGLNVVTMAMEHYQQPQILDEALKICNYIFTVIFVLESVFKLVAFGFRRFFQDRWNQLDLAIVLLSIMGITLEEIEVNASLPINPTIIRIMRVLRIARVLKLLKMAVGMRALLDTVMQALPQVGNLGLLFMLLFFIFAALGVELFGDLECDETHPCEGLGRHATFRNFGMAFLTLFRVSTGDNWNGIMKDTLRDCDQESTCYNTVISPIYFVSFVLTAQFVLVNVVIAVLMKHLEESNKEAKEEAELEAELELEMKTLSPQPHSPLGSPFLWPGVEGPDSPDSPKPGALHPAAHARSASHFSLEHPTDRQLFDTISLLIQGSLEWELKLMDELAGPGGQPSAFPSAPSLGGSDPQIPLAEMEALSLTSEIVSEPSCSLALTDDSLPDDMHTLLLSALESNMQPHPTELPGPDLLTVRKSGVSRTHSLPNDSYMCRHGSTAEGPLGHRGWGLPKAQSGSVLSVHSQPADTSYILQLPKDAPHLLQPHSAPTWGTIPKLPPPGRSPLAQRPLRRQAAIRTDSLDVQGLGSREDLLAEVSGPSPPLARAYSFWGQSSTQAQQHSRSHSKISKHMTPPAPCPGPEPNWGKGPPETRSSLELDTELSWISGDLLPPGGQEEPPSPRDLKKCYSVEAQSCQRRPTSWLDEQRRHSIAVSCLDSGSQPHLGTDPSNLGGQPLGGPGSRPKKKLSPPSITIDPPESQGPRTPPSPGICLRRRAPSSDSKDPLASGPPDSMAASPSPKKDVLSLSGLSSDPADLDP

Row | pIC50 | Compound
1 | 4.88 | Nc1ccc(CNC(=O)CC2c3ccccc3N=C(N3CCCCC3)N2c2ccccc2)cc1 (stereo not drawn)
2 | 5.95 | CCN1C(N(C)C)=Nc2ccccc2C1CC(=O)NCc1ccc(NS(=O)(=O)c2ccc(C)cc2)cc1 (stereo not drawn)
3 | 5.39 | CCN1C(N(C)C)=Nc2ccccc2C1CC(=O)NCc1ccc(NS(=O)(=O)c2ccc(F)cc2)cc1 (stereo not drawn)
4 | 5.63 | O=C(CC1c2ccccc2N=C(N2CCCCC2)N1c1ccccc1)NCc1ccc([N+](=O)[O-])cc1 (stereo not drawn)
5 | 5.34 | CCN1C(N2CCCCC2)=Nc2ccccc2C1CC(=O)NCc1ccccc1 (stereo not drawn)
6 | 4.62 | CCN1C(N(C)C)=Nc2ccccc2C1CC(=O)NCc1ccccc1 (stereo not drawn)
7 | 5.64 | COC(=O)CC1c2ccccc2N=C(Nc2ccccc2)N1CCCCCNC(=O)OC(C)(C)C (stereo not drawn)
8 | 6.06 | CCN1C(N2CCCCC2)=Nc2ccccc2C1CC(=O)NCc1ccc([N+](=O)[O-])cc1 (stereo not drawn)
9 | 5.04 | COC(=O)CC1c2ccccc2N=C(Nc2ccccc2)N1CCCCCN (stereo not drawn)
10 | 5.50 | NCCCCCNC1=Nc2ccccc2C(CC(=O)NCc2ccccc2)N1c1ccccc1 (stereo not drawn)
11 | 5.66 | CCN1C(N(C)C)=Nc2ccccc2C1CC(=O)NCc1ccc([N+](=O)[O-])cc1 (stereo not drawn)
12 | 5.92 | CC(C)(C)OC(=O)NCCCCCN1C(Nc2ccccc2)=Nc2ccccc2C1CC(=O)NCc1ccccc1 (stereo not drawn)
13 | 5.74 | COC(=O)CC1c2ccccc2N=C(NCCCCCN)N1c1ccccc1 (stereo not drawn)
14 | 5.70 | COC(=O)CC1c2ccccc2N=C(NCCCCCNC(=O)OC(C)(C)C)N1c1ccccc1 (stereo not drawn)
15 | 6.37 | CN(C)C1=Nc2ccccc2C(CC(=O)NCc2ccc(NS(=O)(=O)c3ccc(F)cc3)cc2)N1c1ccccc1 (stereo not drawn)
16 | 6.00 | O=C(CC1c2ccccc2N=C(N2CCCCC2)N1c1ccccc1)NS(=O)(=O)c1cccs1 (stereo not drawn)
17 | 4.90 | CCN1C(N(C)C)=Nc2cc(N)ccc2C1CC(=O)NCc1ccc(N)cc1 (stereo not drawn)
18 | 5.34 | NCCCCCN1C(Nc2ccccc2)=Nc2ccccc2C1CC(=O)NCc1ccccc1 (stereo not drawn)
